Source: patent US20100022562A1, “Use of Plant Growth Regulators to Reduce Abscisic Acid Related Plant Leaf Yellowing” (priority 2008, published 2010)

Assays:
Format in all cases: in vivo
[1] = tested on: Pansy plants; test: Pansy yellow leaf number (leaf yellowing)
Procedure: (§1) All studies were conducted in the greenhouse at the research farm of Valent BioSciences Corporation (Long Grove, Ill.). Pansy plants were obtained either from local retailers as mature plants, or plugs from wholesale nurseries. Plugs of Pansy plants were transplanted into an 18-cell flat filled with Promix BX (available from Premier Horticulture Inc. Quakertown, Pa.) and grown for about 30 days prior to treatment. During growing periods, plants received daily irrigation and weekly fertilizer (1 g/L all purpose fertilizer 20-20-20, The Scotts Company, Marysville, Ohio).
(§2) Uniform plants were selected for the study. Prior to chemical treatment, plants were saturated with water and then drained for about two hours. A total of 20 mL chemical solution, which is equivalent to about 10% of the cell volume, was applied to each plant with 3 mL solution foliar applied to canopy and 17 mL solution drench applied to root zone. Unless specified, watering of plants was stopped after chemical treatment.
After chemical treatment, plants were arranged in a randomized complete block experimental design. The plants were rated daily for the extent of wilting on a scale from 1 (no wilting) to 4 (complete wilting) to generated a sales index rating. A rating of 2.5 was the point at which a plant was determined to be unmarketable and the previous day was recorded as the shelf life of that plant in days. […] Leaf transpiration rate was measured after treatment using a LI-1600 Steady State Porometer (LI-Cor, Lincoln, Nebr.). The transpiration rate of each treatment was calculated as the percentage of that of control at each day to reduce day-to-day variation caused by changes of environmental condition such as light intensity, humidity, and temperature.

[2] = tested on: Pansy plants; test: Plant elongation after gibberellin treatment; settings: 0.1 mg or 1 mg per plant; Delta Premium Pure White
Source text: GA4/7 reduced the number of yellow leaves more than GA3.

[3] = tested on: Pansy plants; test: Pansy shelf life under drought (daily wilting rating, sales index)
Procedure: as §1, §2
(§3) After chemical treatment, plants were arranged in a randomized complete block experimental design. The plants were rated daily for the extent of wilting on a scale from 1 (no wilting) to 4 (complete wilting) to generated a sales index rating. A rating of 2.5 was the point at which a plant was determined to be unmarketable and the previous day was recorded as the shelf life of that plant in days. Yellow leaf number was counted at 3 days after chemical treatment. Leaf transpiration rate was measured after treatment using a LI-1600 Steady State Porometer (LI-Cor, Lincoln, Nebr.). The transpiration rate of each treatment was calculated as the percentage of that of control at each day to reduce day-to-day variation caused by changes of environmental condition such as light intensity, humidity, and temperature.

[4] = tested on: Pansy plants; test: Pansy leaf transpiration rate (LI-1600 Steady State Porometer); settings: for Transpiration rate (% of control): Matrix Premium Rose, Table 16; for Transpiration inhibition: sufficient water
Procedure: as §2, §3

Which Yellow leaf number ([1]; 0.1 mg, Delta Premium Pure White, 3 days after treatment, Table 24) does the source give for `C=C1C[C@]23C[C@@]1(O)CC[C@H]2[C@@]12C=C[C@H](O)[C@@](C)(C(=O)O1)[C@H]2[C@@H]3C(=O)O` [GA3, gibberellin A3] here?
The Yellow leaf number was 1.3.

And the Yellow leaf number ([1]; 0.1 mg, Delta Premium Pure White, 7 days after treatment, Table 24)?
Its Yellow leaf number is 3.8.

What about the Yellow leaf number ([1]; 1 mg, Delta Premium Pure White, 3 days after treatment, Table 24) of the same compound?
The Yellow leaf number was 1.2.

What about the Yellow leaf number ([1]; 1 mg, Delta Premium Pure White, 7 days after treatment, Table 24) of the same compound?
The Yellow leaf number was 3.7.

What about the “Effect on plant elongation” value [2] of the same compound?
The value was “no apparent effect”.

What about the Shelf life ([3]; 0.1 mg, Delta Premium Pure White, Table 24) of the same compound?
Its Shelf life is 4.3 days.

And the Shelf life ([3]; 1 mg, Delta Premium Pure White, Table 24)?
Its Shelf life is 4.0 days.

With `C#CC1(C)CC(=O)C=C(C)C1(O)/C=C/C(C)=C\C(=O)OC` (stereo not drawn) [PBI-429, 8′ acetylene-ABA methyl ester] as the compound, how does the Yellow leaf number ([1]; 0.1 mg, Matrix Orange, drought, 3 d after treatment, Table 1) read?
The Yellow leaf number was 3.

What about the Yellow leaf number ([1]; 0.3 mg, Clear Sky Yellow, drought, 3 d after treatment, Table 8) of the same compound?
The Yellow leaf number was 2.8.

What about the Yellow leaf number ([1]; 0.3 mg, Crown Azure Blue, drought, 3 d after treatment, Table 9) of the same compound?
Its Yellow leaf number is 4.8.

And the Yellow leaf number ([1]; 0.3 mg, Matrix Orange, drought, 3 d after treatment, Table 1)?
The Yellow leaf number was 5.

What about the Yellow leaf number ([1]; 0.3 mg, Matrix Orange, drought, 3 d after treatment, Table 2) of the same compound?
Its Yellow leaf number is 9.0.

What about the Yellow leaf number ([1]; 0.3 mg, Matrix Yellow, drought, 3 d after treatment, Table 7) of the same compound?
Its Yellow leaf number is 9.7.

What about the Yellow leaf number ([1]; 1 mg, Matrix Orange, drought, 3 d after treatment, Table 1) of the same compound?
Its Yellow leaf number is 7.

And the Yellow leaf number ([1]; 3 mg PBI-429, no water, Whispers White, 3 d after treatment, Table 15)?
Its Yellow leaf number is 23.3.

And the Yellow leaf number ([1]; 3 mg, Clear Sky Yellow, drought, 3 d after treatment, Table 8)?
Its Yellow leaf number is 4.8.

And the Yellow leaf number ([1]; 3 mg, Crown Azure Blue, drought, 3 d after treatment, Table 9)?
Its Yellow leaf number is 7.7.

What about the Yellow leaf number ([1]; 3 mg, Matrix Orange, drought, 3 d after treatment, Table 1) of the same compound?
Its Yellow leaf number is 10.

What about the Yellow leaf number ([1]; 3 mg, Matrix Yellow, drought, 3 d after treatment, Table 7) of the same compound?
The Yellow leaf number was 13.2.

What about the “Transpiration rate (% of control)” value ([4]; 0.3 mg PBI-429, no water, day 1 after treatment) of the same compound?
Its value is 34 % of control.

What about the “Transpiration rate (% of control)” value ([4]; 0.3 mg PBI-429, no water, day 2 after treatment) of the same compound?
The value was 35 % of control.

And the “Transpiration rate (% of control)” value ([4]; 0.3 mg PBI-429, no water, day 3 after treatment)?
Its value is 26 % of control.

What about the Transpiration inhibition ([4]; 0.3 mg PBI-429, through 3 days after treatment) of the same compound?
Its Transpiration inhibition is “greater than 50%”.

What about the “Transpiration rate (% of control)” value ([4]; 0.3 mg PBI-429, watered, day 1 after treatment) of the same compound?
Its value is 32 % of control.

What about the “Transpiration rate (% of control)” value ([4]; 0.3 mg PBI-429, watered, day 2 after treatment) of the same compound?
Its value is 33 % of control.

What about the “Transpiration rate (% of control)” value ([4]; 0.3 mg PBI-429, watered, day 3 after treatment) of the same compound?
The value was 44 % of control.

And the “Transpiration rate (% of control)” value ([4]; 0.3 mg PBI-429, watered, day 4 after treatment)?
Its value is 68 % of control.

And the “Transpiration rate (% of control)” value ([4]; 0.3 mg PBI-429, watered, day 5 after treatment)?
The value was 74 % of control.

And the “Transpiration rate (% of control)” value ([4]; 0.3 mg PBI-429, watered, day 7 after treatment)?
Its value is 81 % of control.

And the “Transpiration rate (% of control)” value ([4]; 0.3 mg PBI-429, watered, day 10 after treatment)?
The value was 88 % of control.

What about the “Transpiration rate (% of control)” value ([4]; 3 mg PBI-429, no water, day 1 after treatment) of the same compound?
The value was 23 % of control.

What about the “Transpiration rate (% of control)” value ([4]; 3 mg PBI-429, no water, day 2 after treatment) of the same compound?
The value was 14 % of control.

What about the “Transpiration rate (% of control)” value ([4]; 3 mg PBI-429, no water, day 3 after treatment) of the same compound?
The value was 9 % of control.

And the “Transpiration rate (% of control)” value ([4]; 3 mg PBI-429, no water, day 4 after treatment)?
Its value is 10 % of control.

And the “Transpiration rate (% of control)” value ([4]; 3 mg PBI-429, no water, day 5 after treatment)?
The value was 18 % of control.

What about the Transpiration inhibition ([4]; 3 mg PBI-429, through 10 days after treatment) of the same compound?
Its Transpiration inhibition is “greater than 50%”.

What about the “Transpiration rate (% of control)” value ([4]; 3 mg PBI-429, watered, day 1 after treatment) of the same compound?
Its value is 20 % of control.

And the “Transpiration rate (% of control)” value ([4]; 3 mg PBI-429, watered, day 2 after treatment)?
Its value is 15 % of control.

What about the “Transpiration rate (% of control)” value ([4]; 3 mg PBI-429, watered, day 3 after treatment) of the same compound?
Its value is 29 % of control.

What about the “Transpiration rate (% of control)” value ([4]; 3 mg PBI-429, watered, day 4 after treatment) of the same compound?
Its value is 28 % of control.

And the “Transpiration rate (% of control)” value ([4]; 3 mg PBI-429, watered, day 5 after treatment)?
The value was 32 % of control.

What about the “Transpiration rate (% of control)” value ([4]; 3 mg PBI-429, watered, day 7 after treatment) of the same compound?
Its value is 44 % of control.

And the “Transpiration rate (% of control)” value ([4]; 3 mg PBI-429, watered, day 10 after treatment)?
The value was 46 % of control.

What about the Shelf life ([3]; 0.1 mg, Matrix Orange, drought, Table 1) of the same compound?
Its Shelf life is 5.5 days.

And the Shelf life ([3]; 0.3 mg PBI-429, no water, Whispers White, Table 15)?
Its Shelf life is 3.8 days.

And the Shelf life ([3]; 0.3 mg, Clear Sky Yellow, drought, Table 8)?
Its Shelf life is 6.5 days.

And the Shelf life ([3]; 0.3 mg, Crown Azure Blue, drought, Table 9)?
Its Shelf life is 4.5 days.

What about the Shelf life ([3]; 0.3 mg, Matrix Orange, drought, Table 1) of the same compound?
The Shelf life was 5.8 days.

What about the Shelf life ([3]; 0.3 mg, Matrix Orange, drought, Table 2) of the same compound?
The Shelf life was 5.8 days.

What about the Shelf life ([3]; 0.3 mg, Matrix Yellow, drought, Table 7) of the same compound?
The Shelf life was 7.5 days.

What about the Shelf life ([3]; 1 mg, Matrix Orange, drought, Table 1) of the same compound?
Its Shelf life is 7.0 days.

And the Shelf life ([3]; 3 mg PBI-429, no water, Whispers White, Table 15)?
Its Shelf life is 7.2 days.

And the Shelf life ([3]; 3 mg, Clear Sky Yellow, drought, Table 8)?
Its Shelf life is 8.7 days.

And the Shelf life ([3]; 3 mg, Crown Azure Blue, drought, Table 9)?
Its Shelf life is 7.0 days.

And the Shelf life ([3]; 3 mg, Matrix Orange, drought, Table 1)?
Its Shelf life is 8.3 days.

What about the Shelf life ([3]; 3 mg, Matrix Orange, drought, Table 2) of the same compound?
The Shelf life was 9.5 days.

And the Shelf life ([3]; 3 mg, Matrix Yellow, drought, Table 7)?
The Shelf life was 8.8 days.
